In patent US20250289822A1, “SOLID FORMS OF HIV INTEGRASE INHIBITORS” (priority 2024, published 2025):

Experiment: Hygroscopicity by dynamic vapor sorption (DVS): water sorption/desorption as a function of relative humidity
Assay type: physicochemical
Experimental: Hygroscopicity was studied using dynamic vapor sorption (DVS, TA Q5000 SA, TA Instruments, New Castle, DE or DVS, DVS Intrinsic, Surface Measurement Systems, London, UK). […] The water sorption and desorption were studied as a function of relative humidity (RH) at 25° C. […] Data analysis was performed using Universal Analysis 2000 Version 4.7A (TA Instruments, New Castle, DE) for TA DVS runs and Microsoft Excel for SMS DVS runs.

solid form change after the DVS experiment (material checked post DVS experiment): not have changed form
water absorbed (DVS) (up to 95% RH at 25° C.): about 0.15%
SMILES: C[C@@H]1C=C[C@H](C)N2CN1n1cc(C(=O)NCc3c(F)cc(F)cc3F)c(=O)c(O)c1C2=O [Compound of Formula I, Form I, (1S,2R,5S)-8-hydroxy-2,5-dimethyl-7,9-dioxo-N-(2,4,6-trifluorobenzyl)-2,5,7,9-tetrahydro-1,6-methanopyrido[1,2-b][1,2,5]triazonine-10-carboxamide]
